The source of these data is US7214506B2, “Method for treating onychomycosis” (Kaken Pharmaceutical Co., Ltd., priority 1999, dated 2007).

Marks after values point to notes of the source that are not given here. Bounds are passed on as bounds.

Assay [1] deals with Trichophyton mentagrophytes SM-110 strain. Put plainly: Evaluation of drug effect on tinea pedis, guinea pig model, present evaluation method. Particulars: two days after last treatment; 30 consecutive days; topical 1% solution 0.1 ml or oral 40 mg/kg; detection limit 20 CFU/feet. The assay is classed as in vivo. The procedure:
A fungal solution was prepared in the same manner as in the pretreatment of Comparative Example 1 except for changing Trichophyton mentagrophytes KD-04 strain to Trichophyton mentagrophytes SM-110 strain. A guinea pig model of tinea unguium and tinea pedis was prepared in the same manner as in the above-mentioned preparation of the guinea pig model in interdigital tinea pedis except for changing male Hartley strain guinea pigs of 7 weeks age to male Hartley strain guinea pigs of 5 weeks age and except that the paper disc and the bandage was removed 21 days after the infection changing from seven days after the infection. The invasion of dermatophytes in plantar skin and nail plate was observed 60 days after the infection. As test compounds, solutions were prepared by dissolving raw powders of KP-103, amorolfine and terbinafine in a concentration of 1% thereof to mixture solution of polyethylene grycole #400: ethanol (75:25 v/v), respectively. Capsule of terbinafine was prepared by crushing the marketed tablet, suspending in the concentration of 100 mg/ml into Miglyol 812 (available from Mitsuba trade Co., Ltd)with glass homogenizer uniformity, and injecting the resulting suspension into each capsule in the concentration of 40 mg/kg depending on body weight measured on administration day. A solution of KP-103, amorolfine or terbinafine in the amount of 0.1 ml was applied a plantar skin and nail of one foot once a day for 30 consecutive days. In case of terbinafine capsule, one capsule (40 mg/kg) was administered orally. Skin pieces of hind feet were excised from each animal described in Example 4. A removal of the drug and a determination of the remaining drug were carried out in the same as in Example 2 except that dialysis for removing the drug carried out for 3 days and that dialysis water was changed six times in total. The sufficient removal of the remaining drug was confirmed. Then the drug effect was evaluated in the same manner as in Example 4 (detection limit: 20 CFU/feet). Those results were shown in FIG. 4 and Table 4 thereof was made. In FIG. 4, the number of CFU in the skin in each treated group was plotted and the mean number of CFU was shown by horizontal line and numerical value.

For assay [2] the test system is unchanged. Put plainly: Evaluation of drug effect on tinea unguium, guinea pig model, present evaluation method. Particulars: two days after last treatment, 30 consecutive days, topical 1% solution 0.1 ml or oral 40 mg/kg; for The number of feet with fungus-negative nail/Total number of infected feet: detection limit 10 CFU/feet. In kind it is in vivo. The procedure: A fungal solution was prepared in the same manner as in the pretreatment of Comparative Example 1 except for changing Trichophyton mentagrophytes KD-04 strain to Trichophyton mentagrophytes SM-110 strain.
A guinea pig model of tinea unguium and tinea pedis was prepared in the same manner as in the above-mentioned preparation of the guinea pig model in interdigital tinea pedis except for changing male Hartley strain guinea pigs of 7 weeks age to male Hartley strain guinea pigs of 5 weeks age and except that the paper disc and the bandage was removed 21 days after the infection changing from seven days after the infection. The invasion of dermatophytes in plantar skin and nail plate was observed 60 days after the infection.
As test compounds, solutions were prepared by dissolving raw powders of KP-103, amorolfine and terbinafine in a concentration of 1% thereof to mixture solution of polyethylene grycole #400: ethanol (75:25 v/v), respectively. Capsule of terbinafine was prepared by crushing the marketed tablet, suspending in the concentration of 100 mg/ml into Miglyol 812 (available from Mitsuba trade Co., Ltd)with glass homogenizer uniformity, and injecting the resulting suspension into each capsule in the concentration of 40 mg/kg depending on body weight measured on administration day. A solution of KP-103, amorolfine or terbinafine in the amount of 0.1 ml was applied a plantar skin and nail of one foot once a day for 30 consecutive days. In case of terbinafine capsule, one capsule (40 mg/kg) was administered orally.
Animals were sacrificed two days after the last treatment. One hind foot was excised and wiped sufficiently with the cotton sweb containing alcohol. Nails (three in total) of one hind foot was excised and miced by a scissors. It was transferred into glass homogenizer and was homogenized adding 4 ml double-concentration phosphate buffered saline (Phosphate Buffered Salts, available from Takara Shuzo Co., Ltd.) containing 4% of trypsin derived from pig pancreas (available from BIOZYME Laboratories Limited). The reaction was carried out with shaking at 37° C. for one hour. After a centrifugation, the obtaining precipitate was washed three times by centrifuging with phosphate buffered saline in order to remove trypsin. The precipitate was suspended with 4 ml of distilled water and put into dialysis membrane (fractional molecular weight: 12,000–14,000, made of cellulose, available from VISKASE SALES Corporation). Dialysis was carried out into 3 L of distilled water at 4° C. for 14 days. Dialysis water was replaced twice a day 28 times in total. After a centrifugation, 1 ml of phosphate buffered saline was added to the precipitate obtained by removing the supernatant to prepare a suspension. This suspension was defined as stock solution and was diluted by tenfold. To Sabouraud dextrose agar medium (20 ml) containing the antibiotic substance described in Comparative Example 1 were added 100 μl of the stock solution or the dilution. […] The number of fungus-negative feet in the nail was counted. When the colony was appeared on the medium, the number of colonies (CFU) was counted to calculate the number of colonies in the nail of one foot by the dilution rate. After Kruskal Wallis Test was carried out for the number of fungi in the nail, the multiple comparison was carried out based on Tukey method to analysis the significant difference between groups. Those results were shown in FIG. 3 and Table 3 thereof was made. In FIG. 3, the number of CFU in nails in each treated group was plotted and the mean number of CFU was shown by horizontal line and numerical value.
Using the above-mentioned suspension, sufficient removal of the remaining drug was determined by the present evaluation method in the same manner as in Example 2.

The test system of assay [3] is Trichophyton mentagrophytes KD-04 strain. Description: Present evaluation method (drug removed by dialysis, viable fungus detected), guinea pig model of interdigital tinea pedis. In kind it is in vivo. Particulars: five days after the last treatment; for The number of fungus-negative feet/Total number of infected feet, Present evaluation method: right feet, drug removed by dialysis, detection limit 10 CFU/feet. As for the experimental part: (§1) Millipore Filter (made by Millipore Corporation, HA, diameter 47 mm, 0.45 μm) was placed on Brain-Heart-infusion agar medium (available from Nissui Pharmaceutical Co., LTD.), and 10^6 cells of microcondium of Trichophyton mentagrophytes KD-04 strain were applied thereon. The cultivation was carried out at 30° C. under 17% of CO2 for 7 days. After the cultivation, just amount of physiological saline containing 0.05% of Tween 80 was dropped on the filter and arthroconidia were collected using a platinum loop. After a hyphal mass was removed by a filtration with a sterile gauze, the number of arthroconidia in the filtrate was calculated by hemocytometer to adjust in concentration of 1×10^8 arthroconidia/ml to obtain a fungal inocula.
(§2) A guinea pig model of interdigital type of tinea pedis was prepared according to the method of Arika et al (Antimicrobial Agents and Chemotherapy, 36: 2523–2525, 1992). Concretely, in two hind foots of male Hartley strain guinea pigs of 7 weeks age, the interdigital skin was lightly abraded with sandpaper. A paper disc (AAdisc available from Whatmen International Ltd cut in 8×4 mm) moisten with the above-mentioned solution of the inoculated organism was applied onto the region between the interdigital toes of the hind feet and fixed using Self-adhering-Foam Pad (Restone 1560M; available from 3M) and adhesive stretch bandage (ELASTPORE; available from Nichiban Co., Ltd). The paper disc and the bandage were removed seven days after of the infection.
(§3) A marketed 1% lanoconazole solution (commercial name: Astat (trade name) solution) and a solution in which KP-103 was solved in a concentration of 1% in polyethylene grycole #400: ethanol (75:25 v/v) mixture were used as test substance. Each solution in amount of 0.1 ml was applied to the plantar skin once a day from 10 days after the infection for 10 days.
A model was prepared according to Comparative Example 1. Lanoconazole being a test compound was used for a therapeutic experience as 1% solution with the same vehicle as KP-103. […]

Assay [4] shares this test system. Put plainly: Conventional method for evaluating drug effect, guinea pig model of interdigital type of tinea pedis. The assay is classed as in vivo. Particulars: for The number of fungus-negative feet/Total number of infected feet: 1% solution 0.1 ml topical once a day for 10 days, lanoconazole as marketed Astat solution; for The number of fungus-negative feet/Total number of infected feet, Conventional Method: five days after the last treatment, left feet, 1% solutions in PEG #400:ethanol vehicle. The procedure: as §1, §2, §3
The conventional method was described as follows. For the infected control group without an application of the drug, the KP-103-treated group and the lanoconazole-treated group, 10 guinea pigs (hereinafter referred to “animal”) were employed, respectively. Animals of each group were sacrificed two days after and 30 days after the last treatment. Their two hind feet were excised and wiped with the cotton sweb containing alcohol sufficiently. A skin of whole sole was excised and cut into 15 skin pieces in total including 12 skin pieces from plantar parts and 3 skin pieces from an interdigital part. Each skin pieces were placed on 20 ml of Sabouraud dextrose agar medium (available from Difco laboratories) containing 50 μg of chloramphenicol (available from Wako Pure Chemical Industries, Ltd.), 100 μg of gentamicin (available from Schering-Plough Corporation), 50 μg of 5-fluorocytosine (available from Wako Pure Chemical Industries, Ltd.) and 1 mg of cycloheximide (available from nacalai tesque, Inc.) per ml. An antibiotic substance added to the medium was set to a condition which enable bacteria not to grow and which enable fungi to grow without problem. […] In the evaluation of the effect 30 days after last treatment, two days after the last treatment the treated feet were wiped with a cotton swab containing alcohol and fixed with the bandage in order to prevent a reinfection. The bandage was changed once a week.
A model was prepared according to Comparative Example 1. Lanoconazole being a test compound was used for a therapeutic experience as 1% solution with the same vehicle as KP-103. For the infected control group without an application of a drug, the KP-103-treated group and the lanoconazole-treated group, 20 animals were employed, respectively. The two hind feet were excised from each animal five days after the last treatment in the same manner as in Comparative Example 1. A total of 20 light feet were used for an evaluation by the conventional method, and a total of 20 right feet were used in the present evaluation method. […]

The subject of a further assay is Trichophyton. Description: In vitro antifungal activity against dermatophytes. The assay is classed as cell-based.
The test system of the next assay is fungus. Particulars: 20 feet, cited from earlier work.
Where [5] appears, read: 30 days after the last treatment.
[6] abbreviates: two days after the last treatment.

With `CCC(C)(C)c1ccc(CC(C)CN2C[C@@H](C)O[C@@H](C)C2)cc1` (stereo partly shown) [Amorolfine solution, amorolfine], in assay [1], the “Mean number of fungal cells in the skin (Log CFU ± SD)” value was found to be 1.74 ± 0.45 Log CFU and the “The number of feet with fungus-negative skin/Total number of infected feet” value was 4/10. For the same compound, in assay [2], the “Mean number of fungal cells in the nail (Log CFU ± SD)” value is 3.26 ± 0.54 Log CFU and the “The number of feet with fungus-negative nail/Total number of infected feet” value was 0/10.

For the compound `C=C1CCN([C@H](C)[C@](O)(Cn2cncn2)c2ccc(F)cc2F)CC1` [KP-103, (2R,3R)-2-(2,4-difluorophenyl)-3-(4-methylenepiperidine-1-yl)-1-(1H-1,2,4-triazole-1-yl)butane-2-ol], in assay [3], the “rate of a fungus-negative foot evaluated by the present evaluation method” value was 85% and the “The number of fungus-negative feet/Total number of infected feet, Present evaluation method” value was 17/20. Also, the “The number of fungus-negative feet/Total number of infected feet” value in assay [4] (setting [5]) is recorded as 16/20. Besides, the “The number of fungus-negative feet/Total number of infected feet, Conventional Method” value in assay [4] is on record as 19/20. Moreover, in assay [4] (setting [6]), the “The number of fungus-negative feet/Total number of infected feet” value was 20/20. Moreover, in assay [1], the “Mean number of fungal cells in the skin (Log CFU ± SD)” value is <1.3** Log CFU and the “The number of feet with fungus-negative skin/Total number of infected feet” value is given as 10/10**. Also, in assay [2], the “Mean number of fungal cells in the nail (Log CFU ± SD)” value stood at 2.20 ± 0.56 Log CFU and the “The number of feet with fungus-negative nail/Total number of infected feet” value is 0/10.

Regarding `N#C/C(=C1/SCC(c2ccccc2Cl)S1)n1ccnc1` (stereo not shown) [Lanoconazole, lanoconazole], the “The number of fungus-negative feet/Total number of infected feet, Present evaluation method” value in assay [3] is 3/20. Besides, the “The number of fungus-negative feet/Total number of infected feet” value in assay [4] (setting [5]) is recorded as 9/20. Besides, the “The number of fungus-negative feet/Total number of infected feet, Conventional Method” value in assay [4] is reported as 20/20. Moreover, the “The number of fungus-negative feet/Total number of infected feet” value in assay [4] (setting [6]) is on record as 20/20. Besides, in the assay on Trichophyton, the “growth inhibitory concentration against Trichophyton” value amounted to 15.6 ng/mL and the “in vitro activity against Trichophyton relative to KP-103” value was “eight-fold more active than KP-103”. For the same compound, the fungus-negative feet result with fungus (2 days after the last treatment) was “all feet out of 20 feet”. The feet with relapse in the assay with fungus (setting [5]) is 11 out of 20.

Consider `CN(C/C=C/C#CC(C)(C)C)Cc1cccc2ccccc12` [Terbinafine solution, terbinafine], for which, in assay [1], the “Mean number of fungal cells in the skin (Log CFU ± SD)” value is given as <1.3** Log CFU and the “The number of feet with fungus-negative skin/Total number of infected feet” value is 10/10**. Besides, in assay [2], the “Mean number of fungal cells in the nail (Log CFU ± SD)” value was 3.21 ± 0.47 Log CFU and the “The number of feet with fungus-negative nail/Total number of infected feet” value was 0/10.
